Earlier results, collected in patent US20130156896A1, “CELLULOSE-BASED FOOD CASING HAVING A FUNGICIDAL FINISH AND A METHOD FOR PROTECTING CELLULOSE-BASED FOOD CASINGS FROM MOLD INFESTATION” (CASETECH GMBH, priority 2011, published 2013).

Tests used:
microorganisms = settings: known from the literature
Staphylococcus aureus = settings: for example against Staphylococcus aureus
[1] = animal testing

| SMILES | activity against microorganisms (microorganisms) | antimicrobial activity (Staphylococcus aureus) | chemoprotective effect against carcinogens [1] |
| --- | --- | --- | --- |
| COc1ccc(O)c(C(C)(C)C)c1 [BHA, butylated hydroxyanisole] | relatively weak activity | – | – |
| CC(C)c1cc2c(c(O)c1O)[C@@]1(C(=O)O)CCCC(C)(C)[C@@H]1CC2 [carnosic acid] | – | antimicrobial activity | chemoprotective effect |
